Source: patent publication US20220213049A1, “S[…]-4-ONE FOR THE TREATMENT AND PROPHYLAXIS OF HEPATITIS B VIRUS INFECTION” (priority 2019, published 2022)

Assays:
[1] = test system: HBeAg (surrogate marker for cccDNA) in HepDES19 cells; assay: Engineered HepDES19 primary screen assay (HBeAg ELISA); assay type: cell-based, HBV; details: Hepatitis B virus, HepDES19, 120 h, read-out: IC50 (HBeAg level, HepDES19 primary screen assay)
Source text: The assay was employed to screen for novel cccDNA inhibitors. HepDES19 is a cccDNA-producing cell line. In this cell line, HBeAg in the cell culture supernatant as surrogate marker, as HBeAg production depends on cccDNA level and activity. HepDES19 is an engineered cell line which contains a 1.1 unit length HBV genome, and pgRNA transcription from the transgene is controlled by Tetracycline (Tet). In the absence of Tet, pgRNA transcription will be induced, but HBV e antigen (HBeAg) could not be produced from this pgRNA due to very short leader sequence before the HBeAg start codon and the start codon is disrupted. Only after cccDNA is formed, the missing leader sequence and start codon mutation would be restored from the 3′-terminal redundancy of pgRNA, and then HBeAg could be synthesized. Therefore, HBeAg could be used as a surrogate marker for cccDNA (Zhou, T. et al., Antiviral Res. (2006), 72(2), 116-124; Guo, H. et al., J. Virol. (2007), 81(22), 12472-12484).
HepDES19 cells were seeded at 2×10^6 cells per T150 flask and cultured with the culture medium (Dulbecco's Modified Eagle Medium: Nutrient Mixture F-12 [DMEM-F12, Gibco Cat. 11320-82], 10% Fetal Bovine Serum [FBS, Clontech Cat. 631101], 0.1 mM Non-Essential Amino Acids Solution [NEAA, Gibco Cat. 11140-050], 50 μg/mL Penicillin-Streptomycin [PS, Invitrogen Cat. 15140-163], 500 μg/mL Geneticin [G418, Invitrogen Cat. 10131-027]) containing 3 μg/mL Tet (Sigma, Cat. 87128) for 5 days. Cells were then seeded at 4×10^6 cells per T150 in the same culture medium as described above in the absence of Tet for 8 days. Cells were then harvested and frozen at density of 2×10^6 cells per ML. For compound testing, the frozen cells were thawed and seeded into 96-well plates at a density of 6×10^4 cells per well. At 24 hours after seeding, half log serial dilutions of compounds made with Dimethyl sulfoxide (DMSO, Sigma, Cat. D2650) were further diluted with the same culture medium as described above before they were added to the cells to reach desired final compound concentrations and 1% DMSO concentration. Plates were then incubated at 37° C. for another 5 days before measurement of HBeAg level and cell viability. Intracellular HBeAg level were measured with enzyme-linked immunosorbent assay (ELISA) kit (Shanghai Kehua Diagnostic Medical Products Co., Ltd). Cell viability was assessed using Cell Counting Kit-8 (DonJindo, Cat. CK04-20). IC50 values were derived from the dose-response curve using 4 parameter logistic curve fit method.
The compounds of the present invention were tested for their capacity to inhibit extracellular HBeAg level as described herein.

[2] = test system: HBV (extracellular HBsAg) in PHH; assay: Cryopreserved primary human hepatocytes (PHH) HBV infection assay, HBsAg CLIA; assay type: cell-based; details: Hepatitis B virus, Hepatocyte, 216 h, read-out: HBsAg IC50
Description: This assay is used to confirm the anti-HBV effect of the compounds in HBV PHH infection assay. Cryopreserved PHH (BioreclamationIVT, Lot YJM) was thawed at 37° C. and gently transferred into pre-warmed InVitroGRO HT medium (BioreclamationIVT, Cat. S03317). The mixture was centrifuged at 70 relative centrifugal force (RCF) for 3 minutes at RT, and the supernatant was discarded. Pre-warmed InVitroGRO CP medium (BioreclamationIVT, Cat #S03316) was added to the cell pellet to gently re-suspend cells. The cells were seeded at the density of 5.8×10^4 cells per well to collagen I coated 96-well plate (Gibco, Cat. A1142803) with the InVitroGRO CP medium. All plates were incubated at 37° C. with 5% CO2 and 85% humidity.
At 20 hours after plating, the medium was changed to PHH culture medium (Dulbecco's Modified Eagle Medium (DMEM)/F12 (1:1) (Gibco, Cat. 11320-033), 10% fetal bovine serum (Gibco Cat. 10099141), 100 U/mL penicillin, 100 μg/mL streptomycin (Gibco, Cat. 151401-122), […] (Invitrogen Cat. PHG0311L), 20 ng/mL dexamethasone (Sigma, Cat. D4902) and 250 ng/mL human recombinant insulin (Gibco, Cat. 12585-014)). And the cells were incubated at 37° C. with 5% CO2 and 85% humidity for 4 hours. The medium was then changed to pre-warmed PHH culture medium containing 4% polyethylene glycol (PEG) MW8000 (Sigma, Cat. P1458-50ML) and 1% DMSO (Sigma, Cat. D2650). 5.8×10^6 genomic equivalents of HBV were added into the medium.
At 24 hours post-infection, the cells were gently washed with PBS and refreshed with PHH culture medium supplemented with 1% DMSO, and 0.25 mg/mL Matrix gel (Corning, Cat. 356237) at 200 μL per well. All plates were immediately placed in at 37° C. CO2 incubator.
24 hours later, serial dilutions of compounds made with DMSO were further diluted with the same culture medium (PHH culture medium supplemented with 1% DMSO and 0.25 mg/mL Matrix gel as described above) before they were added to the cells to reach desired final compound concentrations and 1% DMSO concentration. The medium containing the compounds were refreshed every three days.
At 9 days post-compound treatment, extracellular HBsAg level were measured with Chemiluminescence Immuno Assay (CLIA) kit (Autobio, HBsAg Quantitative CLIA). Extracellular HBV DNA was extracted by MagNA Pure 96 system (Roche) and then determined by quantitative PCR with the following primers and probe: […]
HBsAg IC50 and HBV DNA IC50 values were derived from the dose-response curve using 4 parameter logistic curve fit method. The compounds of formula (I) have HBsAg IC50<20 μM, particularly <1 μM; and HBV DNA IC50<50 μM.

Compound | IC50 [1] | IC50 [2]
COc1cc(Br)c(OCCO[C@H]2C[C@@H](C(=O)O)C2)cc1-c1cc(=O)c2cccc(Cl)c2o1 [Example 1, Cis-3-[2-[2-bromo-5-(8-chloro-4-oxo-chromen-2-yl)-4-methoxy-phenoxy]ethoxy]cyclobutanecarboxylic acid] | 3.18 µM | 8.02 µM
COc1cc(Br)c(OCCC(=O)O)cc1-c1cc(=O)c2cccc(Cl)c2o1 [Example 2, 3-[2-Bromo-5-(8-chloro-4-oxo-chromen-2-yl)-4-methoxy-phenoxy]propanoic acid] | 1.19 µM | 3.85 µM
COc1cc(Br)c(OC2CC(C(=O)O)C2)cc1-c1cc(=O)c2cccc(Cl)c2o1 (stereo not drawn) [Example 5, 3-[2-Bromo-5-(8-chloro-4-oxo-chromen-2-yl)-4-methoxy-phenoxy]cyclobutanecarboxylic acid] | 6.08 µM | 4.09 µM
COc1cc(Cl)c(OCCO[C@H]2C[C@@H](C(=O)O)C2)cc1-c1cc(=O)c2cccc(Cl)c2o1 [Example 8, Cis-3-[2-[2-chloro-5-(8-chloro-4-oxo-chromen-2-yl)-4-methoxy-phenoxy]ethoxy]cyclobutanecarboxylic acid] | 1.5 µM | 5.13 µM
COc1cc(C)c(OCCCOCC(=O)O)cc1-c1cc(=O)c2cccc(Cl)c2o1 [Example 11, 2-[3-[5-(8-Chloro-4-oxo-chromen-2-yl)-4-methoxy-2-methyl-phenoxy]propoxy]acetic acid] | 2.43 µM | 7.4 µM
Cc1ccc(-c2cc(=O)c3cccc(Cl)c3o2)cc1O[C@H]1C[C@@H](C(=O)O)C1 [Example 15, Cis-3-[5-(8-chloro-4-oxo-chromen-2-yl)-2-methyl-phenoxy]cyclobutanecarboxylic acid] | 0.49 µM | 1.96 µM
O=C(O)COc1cc(-c2cc(=O)c3cccc(Cl)c3o2)ccc1C(F)(F)F [Example 22, 2-[5-(8-Chloro-4-oxo-chromen-2-yl)-2-(trifluoromethyl)phenoxy]acetic acid] | 0.32 µM | 6.59 µM
COc1ccc(OCCO[C@H]2C[C@@H](C(=O)O)C2)cc1-c1cc(=O)c2cccc(Cl)c2o1 [Example 31, Cis-3-[2-[3-(8-Chloro-4-oxo-chromen-2-yl)-4-methoxy-phenoxy]ethoxy]cyclobutanecarboxylic acid] | 4.66 µM | 10.2 µM
COc1c(-c2cc(=O)c3cccc(Cl)c3o2)ccc(Br)c1OC1CC(C(=O)O)C1 (stereo not drawn) [Example 35, 3-[6-Bromo-3-(8-chloro-4-oxo-chromen-2-yl)-2-methoxy-phenoxy]cyclobutanecarboxylic acid] | 0.19 µM | 3.91 µM
COc1c(-c2cc(=O)c3cccc(Cl)c3o2)ccc(C)c1OC1CC(C(=O)O)C1 (stereo not drawn) [Example 36, 3-[3-(8-Chloro-4-oxo-chromen-2-yl)-2-methoxy-6-methyl-phenoxy]cyclobutanecarboxylic acid] | 3.13 µM | 9.26 µM
O=C(O)CCOc1cc(-c2cc(=O)c3cccc(Cl)c3o2)c(OC(F)F)cc1Br [Example 40, 3-[2-Bromo-5-(8-chloro-4-oxo-chromen-2-yl)-4-(difluoromethoxy)phenoxy]propanoic acid] | 1.39 µM | –
O=C(O)CCOc1cc(-c2cc(=O)c3cccc(Cl)c3o2)c(F)cc1Br [Example 41, 3-[2-Bromo-5-(8-chloro-4-oxo-chromen-2-yl)-4-fluoro-phenoxy]propanoic acid] | 0.133 µM | –
O=C(O)CCOc1cc(-c2cc(=O)c3cccc(Cl)c3o2)c(OC(F)(F)F)cc1Br [Example 42, 3-[2-Bromo-5-(8-chloro-4-oxo-chromen-2-yl)-4-(trifluoromethoxy)phenoxy]propanoic acid] | 2.63 µM | –
O=C(O)CCOc1cc(-c2cc(=O)c3cccc(Cl)c3o2)c(Cl)cc1Br [Example 43, 3-[2-Bromo-4-chloro-5-(8-chloro-4-oxo-chromen-2-yl)phenoxy]propanoic acid] | 11.7 µM | –
COc1c(-c2cc(=O)c3cccc(Cl)c3o2)ccc(Br)c1OCCCNC(=O)C(=O)O [Example 44, 2-[3-[6-Bromo-3-(8-chloro-4-oxo-chromen-2-yl)-2-methoxy-phenoxy]propylamino]-2-oxo-acetic acid] | 1.44 µM | –
COc1cc(Br)c(OCCNC(=O)C(=O)O)cc1-c1cc(=O)c2cccc(Cl)c2o1 [Example 45, 2-[2-[2-Bromo-5-(8-chloro-4-oxo-chromen-2-yl)-4-methoxy-phenoxy]ethylamino]-2-oxo-acetic acid] | 1.4 µM | –
COc1cc(Br)c(OCCCNC(=O)C(=O)O)cc1-c1cc(=O)c2cccc(Cl)c2o1 [Example 46, 2-[3-[2-Bromo-5-(8-chloro-4-oxo-chromen-2-yl)-4-methoxy-phenoxy]propylamino]-2-oxo-acetic acid] | 0.61 µM | –
